Results taken from ChEMBL document CHEMBL1649218, “New treatment option for second-stage African sleeping sickness: in vitro and in vivo efficacy of aza analogs of DB289” (Antimicrob Agents Chemother, 2009).
Values after ≈ are worked out from the molar mass of the structure shown. Active and inactive are the calls of the source. The calls are words filed in the database; no cut-off is given here.

Experiments:
[1] = test system: Trypanosoma brucei brucei; experiment: Antitrypanosomal activity against Trypanosoma brucei brucei GVR35 infected in NMRI mouse CNS model assessed as survival of mouse at 100 mg/kg, po for 5 days; format: functional
[2] = test system: Trypanosoma brucei rhodesiense; experiment: Antitrypanosomal activity against wild-type Trypanosoma brucei rhodesiense STIB900 infected in NMRI mouse assessed as survival of mouse at 5 mg/kg, po for 4 days; format: functional
[3] = test system: Trypanosoma brucei rhodesiense; experiment: Antitrypanosomal activity against wild-type Trypanosoma brucei rhodesiense STIB900 infected in NMRI mouse assessed as survival of mouse at 25 mg/kg, po for 4 days; format: functional
[4] = test system: Trypanosoma brucei brucei; experiment: Antitrypanosomal activity against Trypanosoma brucei brucei GVR35 infected in NMRI mouse CNS model assessed as survival of mouse at 10 mg/kg, po for 10 days; format: functional
[5] = test system: Trypanosoma brucei rhodesiense; experiment: Antitrypanosomal activity against wild-type Trypanosoma brucei rhodesiense STIB900 infected in NMRI mouse assessed as survival of mouse at 100 mg/kg, po for 4 days; format: functional
[6] = test system: Trypanosoma brucei rhodesiense; experiment: Antitrypanosomal activity against wild-type Trypanosoma brucei rhodesiense STIB900 infected in NMRI mouse assessed as cure from infection at 25 mg/kg, po for 4 days; format: functional, organism-based; set-up: dose 25 mg/kg
[7] = test system: Trypanosoma brucei brucei; experiment: Antitrypanosomal activity against Trypanosoma brucei brucei GVR35 infected in NMRI mouse CNS model assessed as survival of mouse at 75 mg/kg, po for 5 days; format: functional
[8] = test system: Trypanosoma brucei brucei; experiment: Antitrypanosomal activity against Trypanosoma brucei brucei GVR35 infected in NMRI mouse CNS model assessed as survival of mouse at 100 mg/kg, po for 10 days; format: functional
[9] = test system: Trypanosoma brucei brucei; experiment: Antitrypanosomal activity against Trypanosoma brucei brucei GVR35 infected in NMRI mouse CNS model assessed as cure from infection at 10 mg/kg, po for 10 days; format: functional, organism-based; set-up: dose 10 mg/kg
[10] = test system: Trypanosoma brucei brucei; experiment: Antitrypanosomal activity against Trypanosoma brucei brucei GVR35 infected in NMRI mouse CNS model assessed as survival of mouse at 25 mg/kg, po for 5 days; format: functional
[11] = test system: Trypanosoma brucei brucei; experiment: Antitrypanosomal activity against Trypanosoma brucei brucei GVR35 infected in NMRI mouse CNS model assessed as cure from infection at 25 mg/kg, po for 5 days; format: functional, organism-based; set-up: dose 25 mg/kg
[12] = test system: Trypanosoma brucei brucei; experiment: Antitrypanosomal activity against Trypanosoma brucei brucei GVR35 infected in NMRI mouse CNS model assessed as cure from infection at 100 mg/kg, po for 10 days; format: functional, organism-based; set-up: dose 100 mg/kg
[13] = test system: Trypanosoma brucei rhodesiense; experiment: Antitrypanosomal activity against wild-type Trypanosoma brucei rhodesiense STIB900 infected in NMRI mouse assessed as cure from infection at 50 mg/kg, po for 4 days; format: functional, organism-based; set-up: dose 50 mg/kg
[14] = test system: Trypanosoma brucei brucei; experiment: Antitrypanosomal activity against Trypanosoma brucei brucei GVR35 infected in NMRI mouse CNS model assessed as cure from infection at 100 mg/kg, po for 5 days; format: functional, organism-based; set-up: dose 100 mg/kg
[15] = test system: Trypanosoma brucei brucei; experiment: Antitrypanosomal activity against Trypanosoma brucei brucei GVR35 infected in NMRI mouse CNS model assessed as survival of mouse at 25 mg/kg, po for 10 days; format: functional
[16] = test system: Trypanosoma brucei brucei; experiment: Antitrypanosomal activity against Trypanosoma brucei brucei GVR35 infected in NMRI mouse CNS model assessed as survival of mouse at 50mg/kg, po for 10 days; format: functional
[17] = test system: Trypanosoma brucei rhodesiense; experiment: Antitrypanosomal activity against wild-type Trypanosoma brucei rhodesiense STIB900 infected in NMRI mouse assessed as survival of mouse at 50 mg/kg, po for 4 days; format: functional
[18] = Ratio of IC50 for Trypanosoma brucei gambiense K03048 to IC50 for wild-type Trypanosoma brucei rhodesiense STIB900; format: functional
[19] = test system: Trypanosoma brucei rhodesiense; experiment: Ratio of IC50 for melasoprol-resistant Trypanosoma brucei rhodesiense STIB900 to IC50 for wild-type Trypanosoma brucei rhodesiense […]; format: functional
[20] = test system: Trypanosoma brucei rhodesiense; experiment: Antitrypanosomal activity against wild-type Trypanosoma brucei rhodesiense STIB900 infected in NMRI mouse assessed as survival of mouse at 20 mg/kg, ip for 4 days; format: functional; settings: route intraperitoneal
[21] = test system: Trypanosoma brucei brucei; experiment: Ratio of IC50 for Trypanosoma brucei brucei AT1KO to IC50 for Trypanosoma brucei brucei BS221; format: functional
[22] = test system: Trypanosoma brucei rhodesiense; experiment: Antitrypanosomal activity against melasoprol-resistant Trypanosoma brucei rhodesiense STIB900 by Alamar blue assay; format: functional, organism-based
[23] = test system: Trypanosoma brucei rhodesiense; experiment: Ratio of IC50 for pentamidine-resistant Trypanosoma brucei rhodesiense STIB900 to IC50 for wild-type Trypanosoma brucei rhodesiense STIB900; format: functional
[24] = test system: Trypanosoma brucei brucei; experiment: Antitrypanosomal activity against Trypanosoma brucei brucei AT1KO by Alamar blue assay; format: functional, organism-based
[25] = test system: Trypanosoma brucei gambiense; experiment: Antitrypanosomal activity against Trypanosoma brucei gambiense K03048 by Alamar blue assay; format: functional, organism-based
[26] = test system: Trypanosoma brucei gambiense; experiment: Antitrypanosomal activity against Trypanosoma brucei gambiense ITMAP141267 by Alamar blue assay; format: functional, organism-based
[27] = test system: Trypanosoma brucei brucei; experiment: Antitrypanosomal activity against Trypanosoma brucei brucei BS221 by Alamar blue assay; format: functional, organism-based
[28] = Ratio of IC50 for Trypanosoma brucei gambiense ITMAP141267 to IC50 for wild-type Trypanosoma brucei rhodesiense […]; format: functional
[29] = test system: Trypanosoma brucei rhodesiense; experiment: Antitrypanosomal activity against pentamidine-resistant Trypanosoma brucei rhodesiense STIB900 by Alamar blue assay; format: functional, organism-based
[30] = Ratio of IC50 for Trypanosoma brucei gambiense STIB930 to IC50 for wild-type Trypanosoma brucei rhodesiense […]; format: functional
[31] = test system: Trypanosoma brucei gambiense; experiment: Antitrypanosomal activity against Trypanosoma brucei gambiense STIB930 by Alamar blue assay; format: functional, organism-based
[32] = test system: Trypanosoma brucei rhodesiense; experiment: Antitrypanosomal activity against wild-type Trypanosoma brucei rhodesiense STIB900 infected in NMRI mouse assessed as survival of mouse at 5 mg/kg, ip for 4 days; format: functional; settings: route intraperitoneal
[33] = test system: Trypanosoma brucei rhodesiense; experiment: Antitrypanosomal activity against wild-type Trypanosoma brucei rhodesiense STIB900 by Alamar blue assay; format: functional, organism-based
[34] = test system: Trypanosoma brucei rhodesiense; experiment: Antitrypanosomal activity against wild-type Trypanosoma brucei rhodesiense STIB900 infected in NMRI mouse assessed as cure from infection at 5 mg/kg, po for 4 days; format: functional, organism-based; set-up: dose 5 mg/kg
[35] = test system: Trypanosoma brucei brucei; experiment: Antitrypanosomal activity against Trypanosoma brucei brucei GVR35 infected in NMRI mouse CNS model assessed as cure from infection at 50 mg/kg, po for 5 days; format: functional, organism-based; set-up: dose 50 mg/kg
[36] = test system: Trypanosoma brucei brucei; experiment: Antitrypanosomal activity against Trypanosoma brucei brucei GVR35 infected in NMRI mouse CNS model assessed as cure from infection at 25 mg/kg, po for 10 days; format: functional, organism-based; set-up: dose 25 mg/kg
[37] = test system: Trypanosoma brucei brucei; experiment: Antitrypanosomal activity against Trypanosoma brucei brucei GVR35 infected in NMRI mouse CNS model assessed as survival of mouse at 50 mg/kg, po for 5 days; format: functional

SMILES	MSD [1]	MSD [2]	MSD [3]	Activity [4]	MSD [5]	Activity [6]	MSD [10]	Activity [11]	Activity [13]	MSD [15]	MSD [16]	MSD [17]	also measured
CO/N=C(/N)c1ccc(-c2ccc(-c3ccc(/C(N)=N/O)cc3)o2)nc1	>180 days	>52.75 days	>60 days	Active	>60 days	Active	–	–	–	–	–	–	MSD [7]: >166 days
CO/N=C(\N)c1ccc(-c2ccc(-c3ccc(/C(N)=N/OC)cn3)o2)nc1	>180 days	>40.25 days	>42 days	–	–	–	>95.8 days	inactive	Active	>132.4 days	>153.4 days	>60 days	MSD [8]: >180 days; Activity [9]: inactive; Activity [12]: Active; MSD [4]: 70 days; Activity [14]: Active
N=C(N)c1ccc(OCCCCCOc2ccc(C(=N)N)cc2)cc1 [PENTAMIDINE]	–	–	–	–	–	–	–	–	–	–	–	–	Ratio IC50 [18]: 13.1; Ratio IC50 [19]: 105.4; MSD [20]: >57.5 days; Ratio IC50 [21]: 4.3; IC50 [22]: 124 ng/mL (≈ 0.366 µM); Ratio IC50 [23]: 113.1; IC50 [24]: 4.1 ng/mL (≈ 0.012 µM); IC50 [25]: 15.5 ng/mL (≈ 0.0455 µM); IC50 [26]: 4.2 ng/mL (≈ 0.0123 µM); IC50 [27]: 0.9 ng/mL (≈ 0.00264 µM); Ratio IC50 [28]: 3.6; IC50 [29]: 134 ng/mL (≈ 0.392 µM); Ratio IC50 [30]: 0.9; IC50 [31]: 1.1 ng/mL (≈ 0.00323 µM); MSD [32]: >45 days; IC50 [33]: 1.2 ng/mL (≈ 0.00352 µM)
CO/N=C(/N)c1ccc(-c2ccc(-c3ccc(/C(N)=N/O)cn3)o2)nc1	>140.4 days	29.7 days	>61 days	–	–	Active	–	–	–	–	–	–	Activity [34]: inactive
CONC(=N)c1ccc(-c2ccc(-c3ccc(C(=N)NOC)cc3)o2)cc1 [PAFURAMIDINE]	>167.8 days	–	>60 days	–	–	Active	75.4 days	inactive	Active	>146.6 days	>172.2 days	>60 days	Activity [35]: inactive; Activity [36]: inactive; MSD [37]: >153.6 days
N=C(NO)c1ccc(-c2ccc(-c3ccc(/C(N)=N/O)cn3)o2)cc1	–	–	–	Active	>54 days	–	–	–	–	–	–	–	–
